Source: DBAASP
≈ marks a conversion by molar mass, not a printed value.

Assays:
Test in all cases: ≥ marks a high value that may be exact or a test limit, other limits are often not marked, values filed in µg/mL are converted to µM
[1] = system: Candida albicans ATCC 90028
Candida krusei ATCC 6258 = system: Candida krusei ATCC 6258
[2] = system: Staphylococcus epidermidis ATCC 12228
[3] = system: Candida glabrata ATCC 90030
[4] = system: Staphylococcus aureus ATCC 29213
[5] = system: Enterobacter cloacae ATCC 13047
[6] = system: Enterococcus faecalis ATCC 4028
[7] = system: Escherichia coli ATCC 25922
[8] = system: Pseudomonas aeruginosa ATCC 27853
[9] = system: Agrobacterium tumefaciens GV3101
[10] = system: Sinorhizobium meliloti USDA 1002
Xanthomonas citri = system: Xanthomonas citri
Methylobacterium sp. = system: Methylobacterium sp.
[11] = system: Escherichia coli BL21(DE3)
[12] = system: Bacillus megaterium VKM41
Acinetobacter baumannii = system: Acinetobacter baumannii
[13] = system: Staphylococcus aureus 209P
Escherichia coli C600 = system: Escherichia coli C600
[14] = system: Pseudomonas aeruginosa PAO1
Escherichia coli ML-35p = system: Escherichia coli ML-35p
[15] = system: Bacillus subtilis VKM B-886
[16] = system: Micrococcus luteus VKM B-1314
[17] = system: Escherichia coli K12 MG1655
[18] = system: Salmonella enterica subsp. enterica serovar Typhimurium ATCC 14028
Escherichia coli UTI89 = system: Escherichia coli UTI89
[19] = system: Staphylococcus epidermidis
[20] = system: Salmonella enterica subsp. enterica serovar Pullorum
[21] = system: Salmonella enterica subsp. enterica serovar Pullorum CVCC 3533
Escherichia coli = system: Escherichia coli
Staphylococcus aureus = system: Staphylococcus aureus
[22] = system: Candida albicans ATCC 90029
[23] = system: Micrococcus luteus ATCC 49732
[24] = system: Escherichia coli ATCC 11775
[25] = system: Staphylococcus aureus ATCC 12600
[26] = system: Candida albicans ATCC 14053

Question: What does the source list for CC[C@H](C)[C@H](NC(=O)[C@H](CC(C)C)NC(=O)[C@H](CCCCN)NC(=O)[C@H](CCCCN)NC(=O)[C@@H](NC(=O)[C@H](CC(C)C)NC(=O)[C@H](CO)NC(=O)[C@@H]1CCCN1C(=O)[C@@H](NC(=O)[C@H](CC(C)C)NC(=O)[C@H](CO)NC(=O)[C@H](Cc1ccccc1)NC(=O)[C@@H](N)Cc1ccccc1)[C@@H](C)CC)C(C)C)C(=O)N[C@@H](CCCCN)C(=O)N[C@@H](C)C(=O)N[C@@H](Cc1ccccc1)C(=O)N[C@@H](CCCCN)C(N)=O [FFSLIPSLVKKLIKAFK]?
Answer: MIC [1]: 9.4 µM (≈ 18.6 µg/mL); MIC (Candida krusei ATCC 6258): 9.4 µM (≈ 18.6 µg/mL); MIC [2]: 2.3 µM (≈ 4.55 µg/mL); MIC [3]: 9.4 µM (≈ 18.6 µg/mL); MIC [4]: 1.2 µM (≈ 2.37 µg/mL); MIC [5]: 18.8 µM (≈ 37.2 µg/mL); MIC [6]: 4.7 µM (≈ 9.3 µg/mL); MIC [7]: 2.3 µM (≈ 4.55 µg/mL); MIC [8]: 4.7 µM (≈ 9.3 µg/mL)

Question: CC[C@H](C)[C@H](N)C(=O)N[C@@H](CCC(=O)O)C(=O)N[C@H](C(=O)N[C@@H](Cc1ccccc1)C(=O)N[C@@H](CC(C)C)C(=O)N[C@@H](CCCCN)C(=O)N[C@@H](CCC(N)=O)C(=O)N[C@@H](CC(C)C)C(=O)N[C@@H](CCCN=C(N)N)C(=O)N[C@@H](CO)C(=O)N[C@@H](C)C(=O)N[C@@H](C)C(=O)N[C@@H](CC(N)=O)C(=O)N[C@@H](CCCCN)C(=O)N[C@H](C(=O)N[C@H](C(=O)NCC(=O)N[C@@H](CC(C)C)C(=O)O)C(C)C)[C@@H](C)CC)[C@@H](C)O [IETFLKQLRSAANKIVGL] was tested. Which MIC [9] did it give?
Answer: ≥ 64 µM

Question: What about the MIC [10] of the same compound?
Answer: ≥ 64 µM

Question: What about the MIC (Xanthomonas citri) of the same compound?
Answer: ≥ 32 µM

Question: What about the MIC (Methylobacterium sp.) of the same compound?
Answer: ≥ 64 µM

Question: With CC[C@H](C)[C@H](N)C(=O)N[C@@H](CCCCN)C(=O)N[C@@H](CC(N)=O)C(=O)N[C@@H](C)C(=O)N[C@@H](CCCCN)C(=O)N[C@H](C(=O)N[C@H]1CSSC[C@@H](C(=O)N[C@H](C(=O)N[C@@H](CO)C(=O)N[C@@H](Cc2cnc[nH]2)C(=O)N[C@@H](CCCCN)C(=O)O)C(C)C)NC(=O)[C@H](C(C)C)NC(=O)[C@H](C)NC(=O)[C@H](Cc2ccc(O)cc2)NC(=O)[C@H](C(C)C)NC1=O)C(C)C [IKNAKVCVYAVCVSHK] as the compound, how does the MIC [11] read?
Answer: ≥ 64 µM

Question: And the MIC [12]?
Answer: 16 µM (≈ 28.2 µg/mL)

Question: What about the MIC (Acinetobacter baumannii) of the same compound?
Answer: ≥ 64 µM

Question: What about the MIC [13] of the same compound?
Answer: 16 µM (≈ 28.2 µg/mL)

Question: And the MIC (Escherichia coli C600)?
Answer: ≥ 64 µM

Question: And the MIC [14]?
Answer: > 128 µM

Question: And the MIC (Escherichia coli ML-35p)?
Answer: ≥ 64 µM

Question: What about the MIC [4] of the same compound?
Answer: > 128 µM

Question: And the MIC [15]?
Answer: 16 µM (≈ 28.2 µg/mL)

Question: What about the MIC [16] of the same compound?
Answer: 16 µM (≈ 28.2 µg/mL)

Question: Which results are given for CC[C@H](C)[C@H](NC(=O)[C@H](CCCN=C(N)N)NC(=O)[C@H](CCC(N)=O)NC(=O)[C@H](Cc1c[nH]c2ccccc12)NC(=O)[C@@H](NC(=O)[C@H](CCCCN)NC(=O)[C@@H](N)CCCCN)[C@@H](C)CC)C(=O)N[C@@H](CCCCN)C(=O)N[C@@H](CC(N)=O)C(=O)N[C@@H](Cc1ccccc1)C(=O)N[C@@H](Cc1ccccc1)C(=O)N[C@@H](CCC(N)=O)C(=O)N[C@@H](CCCCN)C(=O)N[C@@H](CC(C)C)C(=O)O [KKIWQRIKNFFQKL]?
Answer: MIC [17]: 7 µM (≈ 13.1 µg/mL); MIC [18]: 29 µM (≈ 54.4 µg/mL); MIC (Escherichia coli UTI89): 6.25 µM (≈ 11.7 µg/mL); MIC [19]: ≥ 50 µM

Question: What does the source list for CC(C)C[C@H](NC(=O)[C@H](CCCCN)NC(=O)[C@H](Cc1cnc[nH]1)NC(=O)[C@H](CCCCN)NC(=O)[C@H](CC(C)C)NC(=O)[C@H](CC(C)C)NC(=O)[C@@H](N)CCCCN)C(=O)N[C@@H](CC(C)C)C(=O)N[C@H](C(=O)N[C@H](C(=O)N[C@@H](CC(C)C)C(=O)N[C@@H](C)C(=O)O)[C@@H](C)O)C(C)C [KLLKHKLLVTLA]?
Answer: MIC [20]: 4.54 µM (≈ 6.25 µg/mL); MIC [21]: 4.54 µM (≈ 6.25 µg/mL); MIC (Escherichia coli): 18.2 µM (≈ 25 µg/mL); MIC (Staphylococcus aureus): 18.2 µM (≈ 25 µg/mL); MIC [4]: 18.2 µM (≈ 25 µg/mL); MIC [22]: ≥ 36.3 µM; MIC [7]: 9.08 µM (≈ 12.5 µg/mL)

Question: With C[C@H](NC(=O)[C@H](C)NC(=O)[C@@H](NC(=O)CNC(=O)[C@@H]1CCCN1)[C@@H](C)O)C(=O)N[C@@H](Cc1ccccc1)C(=O)N[C@@H](CCCCN)C(=O)O [PGTAAFK] as the compound, how does the MIC [23] read?
Answer: ≥ 36 µM

Question: What about the MIC [24] of the same compound?
Answer: ≥ 128 µM

Question: And the MIC [25]?
Answer: ≥ 967 µM

Question: What about the MIC [26] of the same compound?
Answer: ≥ 36 µM
